One assay has as its system LPS-induced TNFα. Nature of the assay: Inhibition of LPS-induced TNFα in serum of mice. The format is in vivo. Particulars: Mus musculus, read-out: ED50 for inhibition of LPS-induced TNFα. On the procedure:
The potency of compounds to inhibit inflammation was quantified in a model in which mice were treated with lipopolysaccharide (LPS). Anti-inflammatory effects were quantified as inhibition of LPS-induced TNFα (S. R. Hyde & R. E. McCallum, Infection & Immunity, 60; 976-982 (1992)). Mice were treated i.p. with 0.5 mg/kg LPS. […] 1½ hours after LPS induction, serum was collected and mice were sacrificed. TNFα levels in serum were quantified using a commercially available Elisa-kit according to the descriptions of the supplier.

The target in assay [1] is T1, recombinant human-GR (GR) (Homo sapiens, UniProt P04150).
T1 construct: purchased PanVera
T1 sequence (P04150 1-777): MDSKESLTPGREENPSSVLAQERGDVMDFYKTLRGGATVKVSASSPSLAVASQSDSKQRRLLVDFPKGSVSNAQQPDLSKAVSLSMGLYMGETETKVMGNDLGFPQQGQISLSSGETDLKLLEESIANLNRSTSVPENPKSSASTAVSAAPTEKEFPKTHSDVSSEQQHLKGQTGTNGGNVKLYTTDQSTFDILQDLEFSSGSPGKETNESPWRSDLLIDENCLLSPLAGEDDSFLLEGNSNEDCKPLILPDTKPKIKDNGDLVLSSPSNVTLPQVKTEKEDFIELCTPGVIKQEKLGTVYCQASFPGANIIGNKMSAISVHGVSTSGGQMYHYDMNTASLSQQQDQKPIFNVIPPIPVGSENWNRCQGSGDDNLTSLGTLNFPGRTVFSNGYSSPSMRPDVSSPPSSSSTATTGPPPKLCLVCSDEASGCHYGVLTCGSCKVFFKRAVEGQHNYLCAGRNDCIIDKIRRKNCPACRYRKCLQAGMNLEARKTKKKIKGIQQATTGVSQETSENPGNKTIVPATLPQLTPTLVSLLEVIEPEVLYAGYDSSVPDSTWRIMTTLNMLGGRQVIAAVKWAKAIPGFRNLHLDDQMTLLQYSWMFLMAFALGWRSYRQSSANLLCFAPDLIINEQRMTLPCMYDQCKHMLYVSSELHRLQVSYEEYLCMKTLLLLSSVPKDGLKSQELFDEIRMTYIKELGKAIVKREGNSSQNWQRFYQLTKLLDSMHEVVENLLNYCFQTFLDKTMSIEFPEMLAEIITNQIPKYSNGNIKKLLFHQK
Nature of the assay: Glucocorticoid Receptor Competitor Assay kit (PanVera), fluorescence polarisation binding. Particulars: fluorescence polarisation competition with fluormone GS1 1 nM, GR 4 nM, 90 minutes room temperature. On the procedure: The affinity of compounds was tested using a Glucocorticoid Receptor Competitor Assay kit (PanVera®). Components of the kit were thawed from −80° C. on ice (Fluormone GS1, recombinant human-GR (GR)) or at room temperature (GR screening buffer, stabilising peptide and DTT). 10 mM test compounds were manually diluted to 20 μM then serially diluted to a final concentration range of 10 μM to 0.1 nM using the BioMek 2000 (Beckman-Coulter) into a black walled 384 welled plate (Matrix technologies). In the following order: fluormone GS1 (1 nM final concentration) is added to all wells excluding the buffer control wells, GR (4 nM final concentration) is added to all wells except minimum and buffer control wells, cortisol (10 μM final concentration) is added to fluormone GS1 control wells only, buffer is added to all wells to a final volume of 40 μl. The plate is covered and incubated at room temperature with agitation for 90 minutes. Readings were taken using the Analyst (LJL) in fluorescence polarisation reading mode. The MilliP ratio is calculated from cps readings obtained in parallel and perpendicular mode. The percent effect of the bound ligand is calculated at each concentration and the dose response curves plotted allowing the EC50 to be calculated. […]
(In general: In fluorescence polarisation assays a small probe gives low polarisation when free and higher when bound to something large.)

The mark [2] stands for this setting: mice, 0.5 mg/kg LPS i.p., compound oral or subcutaneous 1 hour before LPS, serum 1½ hours after LPS.

Structures are written as SMILES. Where two headings read alike, the source gives them in different places.

In general, ED50 refers to the dose at which the effect has come halfway, by size or by number of responders. Usually EC50 stands for the concentration at which the effect is half-maximal.

On to `Cc1nnsc1C(=O)N[C@H]1CCN2c3ccc([N+](=O)[O-])cc3N(C)c3ccccc3[C@@H]2C1` (relative stereo) [Example 31, cis-N-(1,2,3,4,10,14b-hexahydro-10-methyl-8-nitrodibenzo[b,f]pyrido[1,2-d][1,4]diazepin-2-yl)-4-methyl-1,2,3-thiadiazole-5-carboxamide], for which, in the assay on LPS-induced TNFα (setting [2]), the ED50 lay in the range of 0.5 to 20 mg/kg.

As for `C[C@]12C=CC(=O)C=C1CC[C@@H]1[C@@H]2[C@@H](O)C[C@@]2(C)[C@H]1CC[C@]2(O)C(=O)CO` [prednisolone, reference compound], the ED50 with LPS-induced TNFα (setting [2]) amounted to 0.5 mg/kg.

With `CN1c2ccccc2[C@@H]2C[C@@H](NC(=O)C(F)(F)F)CCN2c2ccc(C(=O)Nc3ccccc3)cc21` (relative stereo) [Example 4, cis-1,2,3,4,10,14b-hexahydro-10-methyl-N-phenyl-2-(2,2,2-trifluoroacetylamino)dibenzo[b,f]pyrido[1,2-d][1,4]diazepine-8-carboxamide], the ED50 in the assay on LPS-induced TNFα (setting [2]) was 0.5 to 20 mg/kg.

Take `CN1c2ccccc2[C@@H]2C[C@@H](NC(=O)C(F)(F)F)CCN2c2cc(Cl)c(C#N)cc21` (relative stereo) [Example 9, cis-N-(7-chloro-8-cyano-1,2,3,4,10,14b-hexahydro-10-methyl-dibenzo-[b,f]pyrido[1,2-d][1,4]diazepin-2-yl)-2,2,2-trifluoroacetamide]: in the assay with LPS-induced TNFα, the ED50 was 0.5 to 20 mg/kg.

With `CN1c2ccccc2[C@@H]2C[C@@H](NC(=O)C(Cl)Cl)CCN2c2ccc(C#N)cc21` (relative stereo) [Example 5, cis-2,2-dichloro-N-(8-cyano-1,2,3,4,10,14b-hexahydro-10-methyldibenzo-[b,f]pyrido[1,2-d][1,4]diazepin-2-yl)acetamide], the ED50 in the assay with LPS-induced TNFα (setting [2]) is 0.5 to 20 mg/kg.

Regarding `CN1c2ccccc2[C@@H]2C[C@@H](NC(=O)C(F)(F)F)CCN2c2ccc([N+](=O)[O-])cc21` (relative stereo) [Example 2, cis-2,2,2-trifluoro-N-(1,2,3,4,10,14b-hexahydro-10-methyl-8-nitrodibenzo[b,f]pyrido[1,2-d][1,4]diazepin-2-yl)acetamide], in the assay on LPS-induced TNFα (setting [2]), the ED50 is 0.5 to 20 mg/kg.

With `CC#C[C@]1(O)CC[C@H]2[C@@H]3CCC4=CC(=O)CCC4=C3[C@@H](c3ccc4c(c3)OCO4)C[C@@]21C`, the EC50 in assay [1] came out at 10 nM.

On to `CN1c2ccccc2[C@@H]2C[C@@H](NC(=O)C(F)(F)F)CCN2c2ccc(C#N)cc21` (relative stereo) [Example 3, cis-N-(8-cyano-1,2,3,4,10,14b-hexahydro-10-methyldibenzo[b,f]pyrido[1,2-d][1,4]diazepin-2-yl)-2,2,2-trifluoroacetamide], for which the ED50 in the assay on LPS-induced TNFα (setting [2]) was 0.5 to 20 mg/kg.

The record behind these values is patent US8133885B2, “Non steroidal glucocorticoid receptor modulators” (Merck Sharp & Dohme Corp., priority 2005, dated 2012).
